This passage reports IC50 results from patent publication US11530244B2, “Cyclic polypeptides for PCSK9 inhibition” (priority 2018, dated 2022).

The target in the assay is PCSK9 (Homo sapiens (Human), UniProt Q8NBP7). In words: PCSK9 Alexa FRET Standard assay (displacement of AlexaFluor647 tagged cyclic peptide Reagent A). Particulars: PCSK9 Alexa FRET Standard assay, 0.5 nM PCSK9, 20 nM AF cyclic peptide Reagent A; read-out: IC50. Type of assay: binding. As to the method:
A solution containing 1 nM biotinylated PCSK9+2.5 nM Lance Streptavidin Europium (Strep-Eu) was made in 50 mM HEPES pH 7.4, 0.15 M NaCl, 5 mM CaCl2), 0.01% BSA, and 0.01% Surfactant P20. A separate solution containing 40 nM of the AlexaFluor tagged cyclic peptide was made in the same buffer system. An Echo was used to transfer 0.750 ul of compound to an assay plate followed by the addition of 15 ul of PCSK9+Stept-Eu and 15 ul of AF peptide. The final assay volume was 30.750 ul containing 0.5 nM PCSK9, 1.25 nM Strep-Eu, and 20 nM AF cyclic peptide. The reaction was incubated at room temperature for at least two hours prior to fluorescence measurements using an Envision Multilabel Reader. IC50 values were determined by fitting data to a sigmoidal dose-response curve using nonlinear regression. Ki was then calculated from the IC50 and the KD of AF cyclic peptide. Counts (B-counts) of the europium-labeled PCSK9 were followed to observe if compounds were […]. A fall off of the B-counts likely indicated a false positive of inhibition. Data from this procedure was reported as “A=‘numerical value’ (nanomolar)”

Starred links: 1 amine or outer side, 2 acyl side, 3 side chain; linkers in the order of their positions; H or OH if unused. Positions of bridges follow the written chain, without caps; N, C: chain ends. Non-standard residues stand in square brackets, D forms with d. Residues, ends and D or L forms follow the SMILES beside them. Phe(4-COOH) = N[C@@H](Cc1ccc(C(=O)O)cc1)C(=O)O; Trp(5-F) = N[C@@H](Cc1c[nH]c2ccc(F)cc12)C(=O)O; Isophthaloyl = O=C(c1cccc(C(=O)[*:2])c1)[*:1]; Trp(7-aza) = N[C@@H](Cc1c[nH]c2ncccc12)C(=O)O; Phe(4-CH2NH2) = NCc1ccc(C[C@H](N)C(=O)O)cc1; Heptanedioyl = O=C(CCCCCC(=O)[*:2])[*:1]; Pro(cis-4-F) = O=C(O)[C@@H]1C[C@H](F)CN1; mXylylene = c1cc(C[*:1])cc(C[*:2])c1; aThr = C[C@H](O)[C@H](N)C(=O)O; αMeP = C[C@@]1(C(=O)O)CCCN1; Orn = NCCC[C@H](N)C(=O)O; Dab = NCC[C@H](N)C(=O)O; Mpa = O=C(O)CCS

PCSK9, sequence (Q8NBP7 153-692): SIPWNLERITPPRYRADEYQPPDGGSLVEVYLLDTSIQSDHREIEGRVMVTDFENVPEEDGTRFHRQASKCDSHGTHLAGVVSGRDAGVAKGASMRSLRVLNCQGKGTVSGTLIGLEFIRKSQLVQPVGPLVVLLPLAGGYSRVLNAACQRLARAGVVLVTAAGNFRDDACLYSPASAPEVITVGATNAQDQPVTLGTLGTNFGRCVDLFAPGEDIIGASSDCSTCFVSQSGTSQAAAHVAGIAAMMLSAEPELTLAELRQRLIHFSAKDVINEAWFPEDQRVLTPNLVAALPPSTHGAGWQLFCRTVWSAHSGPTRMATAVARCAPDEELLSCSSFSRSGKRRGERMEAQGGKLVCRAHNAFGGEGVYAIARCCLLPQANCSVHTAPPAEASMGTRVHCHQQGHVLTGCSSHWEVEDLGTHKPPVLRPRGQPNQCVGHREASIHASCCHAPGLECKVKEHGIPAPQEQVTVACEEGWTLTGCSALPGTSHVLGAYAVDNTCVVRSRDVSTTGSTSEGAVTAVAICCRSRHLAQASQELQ

In the case of `COc1ccc(C[C@@H]2NC(=O)[C@H]([C@@H](C)O)NC(=O)[C@@H]3C[C@H](F)CN3C(=O)[C@H](Cc3c[nH]c4ccc(F)cc34)NC(=O)[C@H](Cc3c[nH]c4ccc(F)cc34)NC(=O)[C@@H](C)NC(=O)CCCCCC(=O)NCc3ccc(cc3)C[C@@H](C(N)=O)NC(=O)[C@]3(C)CCCN3C2=O)cc1` [Compound 125] ([dA][Trp(5-F)][Trp(5-F)][Pro(cis-4-F)]TY(Me)[αMeP][Phe(4-CH2NH2)]-NH2; linker N-8 via Heptanedioyl), the IC50 (usually the concentration that gives 50% inhibition) was 21 to 50 µM.
The same measure for `CC(C)C[C@H]1C(=O)N[C@@H](Cc2ccc(O)cc2)C(=O)N2CCC[C@@]2(C)C(=O)N[C@H](C(N)=O)CSCc2cccc(c2)CSCCC(=O)N[C@@H](CCCCN)C(=O)NCC(=O)N[C@@H](Cc2c[nH]c3ccc(F)cc23)C(=O)N[C@@H](Cc2c[nH]c3ccc(F)cc23)C(=O)N2CCC[C@@]23CCN1C3=O` [Compound 127]: 0.1 to 1 µM.
Next, `C[C@@]12CCCN1C(=O)[C@H](Cc1ccc(O)cc1)NC(=O)CN1C(=O)[C@H](N=C(C3CCCCC3)c3ccccc31)NC(=O)[C@H](Cc1c[nH]c3ccc(F)cc13)NC(=O)[C@H](Cc1c[nH]c3ccc(F)cc13)NC(=O)CNC(=O)[C@H](CCCCN)NC(=O)CCSCc1cccc(c1)CSC[C@@H](C(N)=O)NC2=O` [Compound 128]: 21 to 50 µM; `COc1ccc(C[C@@H]2NC(=O)[C@H]([C@H](C)O)NC(=O)[C@@H]3C[C@H](F)CN3C(=O)[C@H](Cc3c[nH]c4ccc(F)cc34)NC(=O)[C@H](Cc3c[nH]c4ccc(F)cc34)NC(=O)[C@@H](C)NC(=O)[C@H](C)NC(=O)[C@@H](NC(C)=O)CCNC(=O)c3cccc(c3)C(=O)NCCC[C@@H](C(N)=O)NC(=O)[C@]3(C)CCCN3C2=O)cc1` [Compound 134] (Ac-[Dab]A[dA][Trp(5-F)][Trp(5-F)][Pro(cis-4-F)][aThr]Y(Me)[αMeP][Orn]-NH2; linker 1-10 via Isophthaloyl): 21 to 50 µM; `NCCCC[C@@H]1NC(=O)CCSCc2cccc(c2)CSC[C@@H](C(N)=O)NC(=O)[C@@H]2CCCN2C(=O)[C@H](Cc2c[nH]c3ncccc23)NC(=O)[C@H](Cc2c[nH]cn2)NC(=O)[C@H](CC(=O)O)NC(=O)[C@H](Cc2c[nH]c3ccc(F)cc23)NC(=O)[C@H](Cc2c[nH]c3ccc(F)cc23)NC(=O)CNC1=O` [Compound 235] ([Mpa]KG[Trp(5-F)][Trp(5-F)]DH[Trp(7-aza)]PC-NH2; linker 1-10 via mXylylene): 21 to 50 µM.
The same measure for `CC(=O)N[C@H]1CCc2cn(nn2)-c2ccc(cc2)C[C@@H](C(N)=O)NC(=O)[C@]2(C)CCCN2C(=O)[C@H](Cc2ccc(O)cc2)NC(=O)[C@H](Cc2cnc[nH]2)NC(=O)[C@H](CC(=O)O)NC(=O)[C@H](Cc2c[nH]c3ccc(F)cc23)NC(=O)[C@H](Cc2c[nH]c3ccc(F)cc23)NC(=O)CNC(=O)[C@H](C)NC1=O` [Compound 331]: 21 to 50 µM; for `CC(=O)N[C@H]1CCCc2cn(nn2)-c2ccc(cc2)C[C@@H](C(N)=O)NC(=O)[C@]2(C)CCCN2C(=O)[C@H](Cc2ccc(O)cc2)NC(=O)[C@H](Cc2cnc[nH]2)NC(=O)[C@H](CC(=O)O)NC(=O)[C@H](Cc2c[nH]c3ccc(F)cc23)NC(=O)[C@H](Cc2c[nH]c3ccc(F)cc23)NC(=O)CNC(=O)[C@H](C)NC1=O` [Compound 337]: 21 to 50 µM.
In the case of `COc1ccc(C[C@@H]2NC(=O)[C@H](Cc3cnc[nH]3)NC(=O)[C@H](CC(=O)O)NC(=O)[C@H](Cc3c[nH]c4ccc(F)cc34)NC(=O)[C@H](Cc3c[nH]c4ccc(F)cc34)NC(=O)[C@@H](C)NC(=O)[C@H](NC(C)=O)CCCCNC(=O)c3ccc(cc3)C[C@@H](C(N)=O)NC(=O)[C@]3(C)CCCN3C2=O)cc1` [Compound 341] (Ac-[dK][dA][Trp(5-F)][Trp(5-F)]DHY(Me)[αMeP][Phe(4-COOH)]-NH2; lactam 1-9), the IC50 was in the range of 21 to 50 µM.
